From the supplement of paper PMC4977894
± gives the standard deviation of the averaged measurements.

Tests used:
[1] = test system: Homo sapiens (human subject panel, olfactory perception); experiment: perceived odor intensity rating (rating 0-100); higher = stronger perceived smell
How it was run: (§1)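 For each molecule, 1 mL diluted in paraffin oil was sniffed at high and low concentrations by 55 healthy human subjects aged 18–50, with the six lowest performers excluded. Presentation order was randomized over ten visits of 100 stimuli. Subjects who reported smelling a stimulus moved a computerized slider from its starting position of 50, and positions were converted to a 0–100 scale. The familiarity, intensity and pleasantness ratings are averaged across subjects.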

[2] = test system: Homo sapiens (human subject panel, olfactory perception); experiment: perceived odor familiarity rating (rating 0-100); higher = more familiar
How it was run: as §1

[3] = test system: Homo sapiens (human subject panel, olfactory perception); experiment: perceived odor pleasantness rating (rating 0-100); higher = more pleasant
How it was run: as §1

[4] = odor dilution in paraffin oil: 1/1,000
[5] = odor dilution in paraffin oil: 1/100,000
[6] = odor dilution in paraffin oil: 1/10
[7] = odor dilution in paraffin oil: 1/10,000,000

Row | Compound | perceived odor intensity rating [1, 4] | perceived odor intensity rating [1, 5] | perceived odor familiarity rating [2, 4] | perceived odor familiarity rating [2, 5] | perceived odor pleasantness rating [3, 4] | perceived odor pleasantness rating [3, 5] | perceived odor intensity rating [1, 6] | perceived odor familiarity rating [2, 6] | perceived odor pleasantness rating [3, 6] | perceived odor intensity rating [1, 7] | perceived odor familiarity rating [2, 7] | perceived odor pleasantness rating [3, 7]
1 | C/C=C/C=C/CO [trans,trans-2,4-Hexadien-1-ol] | 45.5 ± 30 | 14.4 ± 18 | 45.1 ± 32 | 36.4 ± 30 | 48 ± 23 | 49.6 ± 23 |  |  |  |  |  | 
2 | C/C=C/C=C/COC(C)=O [trans,trans-2,4-Hexadienyl acetate (replicate)] | 23.5 ± 26 |  | 30.6 ± 27 |  | 49.5 ± 25 |  | 19.1 ± 20 | 30.4 ± 25 | 47.6 ± 22 |  |  | 
3 | C/C=C/C=C/COC(C)=O [trans,trans-2,4-Hexadienyl acetate] | 22 ± 23 |  | 35.5 ± 27 |  | 51.3 ± 24 |  | 13.9 ± 24 | 24.8 ± 27 | 39.4 ± 25 |  |  | 
4 | CCC/C=C/COC(C)=O [trans-2-Hexenyl acetate] | 64.3 ± 27 | 38.3 ± 30 | 52.4 ± 30 | 38.8 ± 26 | 41.2 ± 30 | 49 ± 24 |  |  |  |  |  | 
5 | CCCCC/C=C/CO [trans-2-Octen-1-ol] | 69.6 ± 26 | 27.6 ± 28 | 46.4 ± 32 | 31 ± 31 | 36.5 ± 28 | 50.8 ± 22 |  |  |  |  |  | 
6 | C/C=C/c1ccc(OC)cc1 [trans-Anethole] | 64.3 ± 28 | 30.8 ± 30 | 74 ± 26 | 40 ± 32 | 62.1 ± 26 | 51.3 ± 23 |  |  |  |  |  | 
7 | O=C(O)/C=C/c1ccccc1 [trans-Cinnamic acid] | 59.5 ± 30 |  | 46.5 ± 32 |  | 28.4 ± 28 |  | 72.3 ± 23 | 51.5 ± 31 | 52.7 ± 30 |  |  | 
8 | CCC(=O)OC/C=C/c1ccccc1 [trans-Cinnamyl propionate] | 46.3 ± 30 | 23.7 ± 29 | 45.5 ± 29 | 36.7 ± 28 | 50.8 ± 23 | 46.9 ± 24 |  |  |  |  |  | 
9 | CCCCCCCCCCC=O [undecanal] | 68.2 ± 28 | 20.4 ± 26 | 47.9 ± 32 | 28.2 ± 25 | 36.2 ± 26 | 50 ± 21 |  |  |  |  |  | 
10 | CCCCCCCCCCC [undecane] | 21 ± 26 |  | 35 ± 29 |  | 53.3 ± 23 |  | 56.4 ± 31 | 41.7 ± 32 | 32.3 ± 21 |  |  | 
11 | CCCCC=O [valeraldehyde] |  | 41.3 ± 30 |  | 43.7 ± 26 |  | 43 ± 25 |  |  |  | 18.8 ± 22 | 38.9 ± 28 | 49.8 ± 26
12 | CCCCC(=O)O [valeric acid] |  | 47.2 ± 29 |  | 31.6 ± 29 |  | 24.7 ± 22 |  |  |  | 34.9 ± 32 | 45.2 ± 34 | 37.5 ± 23
13 | COc1cc(C=O)ccc1O [vanillin] | 74.4 ± 22 |  | 80.7 ± 21 |  | 84 ± 20 |  | 72.1 ± 23 | 82.6 ± 18 | 86.3 ± 15 |  |  | 
